Reference: patent US9226912B2, “Acetyltanshinone IIA (ATA) as anticancer agent” (Nanyang Technological University, priority 2011, dated 2016)

How the values were obtained:
MDA-MB-435 = experiment: IC50 and LC50 of ATA at 48 h; assay type: cell-based; conditions: Homo sapiens, MDA-MB-435 melanoma
HL-60 = experiment: IC50 and LC50 of ATA at 48 h; assay type: cell-based; conditions: Homo sapiens, HL-60 leukemia
HeLa [1] = experiment: IC50 and LC50 of ATA at 48 h; assay type: cell-based; conditions: Homo sapiens, HeLa cervical cancer
[2] = IC50 and LC50 of ATA at 48 h; assay type: cell-based; conditions: human, MCF-10A cells (non-cancer breast cell line), MCF-10A non-cancer breast cell line
MCF-10A = experiment: IC50 and LC50 of ATA at 48 h; assay type: cell-based; conditions: Homo sapiens, MCF-10A non-cancer breast cell line
A549 = experiment: IC50 of ATA at 72 h; assay type: cell-based; conditions: Homo sapiens, A549 lung cancer cells
Procedure: (§1) The cytotoxcitiy of ATA was assessed in cancer cell lines and normal cells. In order to do so the IC50 of ATA at 72 h in multiple cancer cell lines or normal cell lines including muscle and fibroblast cells was evaluated.

C2C12 (non-cancerous) = experiment: IC50 of ATA at 72 h; assay type: cell-based; conditions: Mus musculus, C2C12 myoblast (normal muscle cells)
Procedure: as §1

Caco2 = experiment: IC50 of ATA at 72 h; assay type: cell-based; conditions: Homo sapiens, Caco-2, Caco2 colorectal adenocarcinoma
Procedure: as §1

HCT 116 = experiment: IC50 of ATA at 72 h; assay type: cell-based; conditions: Homo sapiens, HCT 116 colorectal adenocarcinoma
Procedure: as §1

HCT 15 = experiment: IC50 of ATA at 72 h; assay type: cell-based; conditions: Homo sapiens, HCT 15 colorectal adenocarcinoma
Procedure: as §1

HeLa [3] = experiment: IC50 of ATA at 72 h; assay type: cell-based; conditions: Homo sapiens, HeLa cervical cancer cells
Procedure: as §1

HepG2 = experiment: IC50 of ATA at 72 h; assay type: cell-based; conditions: Homo sapiens, HepG2 liver cancer cells
Procedure: as §1

IMR-90 (non-cancerous) = experiment: IC50 of ATA at 72 h; assay type: cell-based; conditions: Homo sapiens, IMR-90 fibroblast (normal lung cells)
Procedure: as §1

K-562 = experiment: IC50 of ATA at 72 h; assay type: cell-based; conditions: Homo sapiens, K562, K-562 leukaemia cells
Procedure: as §1

SK-N-SH = experiment: IC50 of ATA at 72 h; assay type: cell-based; conditions: Homo sapiens, SK-N-SH neuroblastoma
Procedure: as §1

MCF-7/HER2 cells = experiment: Growth inhibition of HER2 over-expressing cells at 72 h; assay type: cell-based
Description: The efficacy of ATA on MCF-7 cells with over-expressed HER2 protein was investigated.

[4] = test system: Four types of cancer cells; experiment: ATA versus TIIA, cell viability by MTT assay after 48 h; assay type: cell-based; conditions: 10 μM or 20 μM
Procedure: Four types of cancer cells were treated with ATA or TIIA at either 10 μM or 20 μM and the cell viability was measured by MTT assay after 48 h of compound addition. * p<0.01.

[5] = test system: xenografted tumors derived from human melanoma MDA-MB-435 cells; experiment: Xenografted tumors in nude mice; assay type: in vivo; conditions: 30 mg/kg, 3×/week intraperitoneal, four weeks
Procedure: ATA (▴ 30 mg/kg), etoposide (▪ ETS, 20 mg/kg) and vehicle control (◯) were injected into mice 3×/week via intraperitoneal injection. Average tumor size (A) and mice body weight (B) were measured from five mice.
The anti-tumour effect of ATA was examined in nude mice (FIG. 13 and FIG. 14) carrying solid tumours generated by injecting human melanoma MDA-MB-435 cells into the mice subcutaneously. The tumour size and mouse body weight were monitored over a period of four weeks.

MDA-MB-435 cells = experiment: cells; assay type: cell-based; conditions: Homo sapiens, MDA-MB-435, 24 h, read-out: cell viability
Procedure: (A) ROS generation in various cancer cell lines was detected using H2DCFDA after 10 μM ATA treatment for 2 h. The number indicates the fold of increase in ROS level compared to control. (B) Antioxidant prevented ATA-induced MDA-MB-435 cell death. Various antioxidants at the indicated concentration were tested for their protective effects against ATA-induced MDA-MB-435 cell death. Cells were first pre-treated with each antioxidant for 1 h and then ATA was added into the culture medium in the presence of antioxidants. The cell viability was measured by sulforhodamine B (SRB) colorimetric assay for cytotoxicity determination (* p<0.01).
(A) PG prevented ATA-induced cell death. Three concentrations of PG were tested for their protective effects on ATA-induced cell death. The cell viability was measured by SRB assay. (* p<0.01). (B) PG protected ROS generation caused by ATA treatment. […] All the experiments were performed at least three times. The results presented in this figure are the average of three experiments. […]
Since the generation of ROS was detected in all six examined cell lines and it occurred only 2 h after ATA addition, which was at least 4-6 h ahead of Bax translocation, it was speculated that ATA-mediated ROS generation might be the cause for cell death. […] The percentage of cell death after 24 h of ATA treatment was measured using SRB cytotoxicity assay.

ERα in BT474 cells = molecular target: T1, ERα in BT474 cells (Homo sapiens, UniProt P03372); experiment: ERα protein level by Western blotting; assay type: cell-based; conditions: 6 μM ATA or 1 μM fulvestrant
T1 construct: endogenous in cells; host or cells: BT474 human breast cancer cells
T1 sequence (P03372 whole entry): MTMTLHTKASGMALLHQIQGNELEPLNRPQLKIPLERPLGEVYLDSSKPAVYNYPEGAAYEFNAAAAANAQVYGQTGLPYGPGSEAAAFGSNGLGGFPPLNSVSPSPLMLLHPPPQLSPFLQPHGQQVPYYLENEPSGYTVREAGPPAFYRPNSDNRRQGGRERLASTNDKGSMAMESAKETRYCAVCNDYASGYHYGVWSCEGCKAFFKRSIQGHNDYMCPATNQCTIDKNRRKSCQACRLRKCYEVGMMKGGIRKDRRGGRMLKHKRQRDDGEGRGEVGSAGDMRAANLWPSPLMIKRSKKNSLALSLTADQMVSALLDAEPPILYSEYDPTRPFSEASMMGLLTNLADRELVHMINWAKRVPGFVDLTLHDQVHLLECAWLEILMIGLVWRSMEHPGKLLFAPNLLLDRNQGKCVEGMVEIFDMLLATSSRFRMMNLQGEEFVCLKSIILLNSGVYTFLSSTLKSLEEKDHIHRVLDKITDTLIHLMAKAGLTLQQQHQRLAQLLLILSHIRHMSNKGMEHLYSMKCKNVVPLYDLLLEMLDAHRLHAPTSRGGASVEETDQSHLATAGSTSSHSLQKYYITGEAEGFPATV
Procedure: Cells were treated with 6 μM ATA or 1 μM fulvestrant for indicated times and analyzed by Western blotting.

ESR1 mRNA in MCF-7 cells = experiment: Real-time PCR of ESR1 mRNA level; conditions: 100 pM estrogen plus 6 μM compound
Procedure: MCF-7 cells cultured in the charcoal-stripped medium were used as control for the 0 h sample.

MCF-7 = experiment: Growth inhibition at 72 h by MTT assay

## CC(=O)Oc1c(OC(C)=O)c2c(C)coc2c2ccc3c(c12)CCCC3(C)C [ATA, 1,6,6-trimethyl-8,9-dihydro-10,11-diacetoxyl-7H-naphtho[1,2-g][1]benzofuran]
MDA-MB-435
  CC50: 2.74 ± 0.51 µM
  IC50: 0.55 ± 0.15 µM
HL-60
  CC50: 8.53 ± 0.2 µM
  IC50: 2.98 ± 0.37 µM
HeLa [1]
  CC50: 10.9 ± 1.45 µM
  IC50: 1.39 ± 0.13 µM
[2]
  CC50 at 48 h: 16.3 ± 4.46 µM
MCF-10A
  IC50: 6.64 µM
A549
  IC50: 0.81 ± 0.13 µM
C2C12 (non-cancerous)
  IC50: 10.2 ± 1.44 µM
Caco2
  IC50: 2.5 ± 0.45 µM
HCT 116
  IC50: 2.28 ± 0.49 µM
HCT 15
  IC50: 0.56 ± 0.08 µM
HeLa [3]
  IC50: 0.69 ± 0.19 µM
HepG2
  IC50: 4.27 ± 0.73 µM
IMR-90 (non-cancerous)
  IC50: 15.5 ± 0.71 µM
K-562
  IC50: 1.69 ± 0.34 µM
SK-N-SH
  IC50: 1.24 ± 0.12 µM
MCF-7/HER2 cells; Homo sapiens, MCF7, MCF-7/HER2 cells, 72 h
  IC50: 1 ± 0.23 µM
MCF-7/HER2 cells; paclitaxel 1×10^−3 μM to 10 μM, ATA 0.78 μM to 6.25 μM
  sensitivity of MCF-7/HER2 cells compared with MCF-7 cells: higher sensitivity to ATA
[4]
  growth inhibition effect compared with TIIA: stronger growth inhibition effect than TIIA
[5]
  average body weight versus control mice: did not significantly decrease
  tumour growth: significant inhibition on tumour growth
MDA-MB-435 cells
  viability at 5 µM: 35%
ERα in BT474 cells
  level of ERα: reduced the level of ERα and HER2
ESR1 mRNA in MCF-7 cells; 12 h, charcoal-stripped medium
  level of ESR1 mRNA over control: 55%
ESR1 mRNA in MCF-7 cells; 24 h, charcoal-stripped medium
  level of ESR1 mRNA over control: 31%
ESR1 mRNA in MCF-7 cells; 24 h, normal medium
  level of ESR1 mRNA over control: about 30%
ESR1 mRNA in MCF-7 cells; 36 h and 48 h, charcoal-stripped medium
  level of ESR1 mRNA over control: about 50%
MCF-7; Homo sapiens, MCF7, 72 h
  IC50: 1.48 ± 0.24 µM
MCF-7; Homo sapiens, MCF7, 72 h, read-out: growth inhibition rate
  inhibition at 3.13 µM: 94.7%
MCF-7; MCF-7 (ER+), 72 h
  IC50 ratio of tamoxifen/ATA: 6.8
MCF-7; MCF-7, three tested drug concentrations, 72 h, MTT
  higher growth inhibition rate than tamoxifen: 57-74%
MCF-7; two ER-positive breast cancer cell lines, 72 h
  less ATA needed than tamoxifen to inhibit 50% of ER-positive cell growth: 6.7 fold
